In patent publication US11041000B2, “Peptide inhibitors of interleukin-23 receptor and their use to treat inflammatory diseases” (priority 2019, dated 2021):
Numbered stars: 1 amine (or outer) side, 2 acyl side, 3 side chain; on linkers, the order of the positions; unused ones are H or OH. Bridge positions count the residues as written; N and C are the ends. Square brackets hold non-standard residues; d marks the D form. Peptide text beside a SMILES is read from it. X3 = CCc1ccc2c(C[C@H](N[*:1])C(=O)[*:2])c[nH]c2c1; Trp(7-Me) = Cc1cccc2c(C[C@H](N)C(=O)O)c[nH]c12; Trp(2-Me) = Cc1[nH]c2ccccc2c1C[C@H](N)C(=O)O; Abu(4-yl) = O=C([C@H](CC[*:3])N[*:1])[*:2]; 2Nal = N[C@@H](Cc1ccc2ccccc2c1)C(=O)O; AEF = NCCOc1ccc(C[C@H](N)C(=O)O)cc1; Cit = NC(=O)NCCC[C@H](N)C(=O)O; Pen = CC(C)(S)[C@H](N)C(=O)O; hLeu = CC(C)CC[C@H](N)C(=O)O; αMeK = C[C@](N)(CCCCN)C(=O)O; Dab = NCC[C@H](N)C(=O)O; Aib = CC(C)(N)C(=O)O; Sar = CNCC(=O)O

Legend:
Type in all cases: in vitro ADME
[1] = Stability in simulated intestinal fluid (SIF); conditions: simulated intestinal fluid with pancreatin, pH 6.8, 37° C., matrix is 100 fold dilution of standard SIF concentration; for SIF t½: 20 μM; for half-life at 20 μM: read-out: SIF t½ (converted)
Experimental: SIF was prepared by adding 6.8 g of monobasic potassium phosphate and 10.0 g of pancreatin to 1.0 L of water. After dissolution, the pH was adjusted to 6.8 using NaOH. DMSO stocks (2 mM) were first prepared for the test compounds. Aliquots of the DMSO solutions were dosed into 6 individual tubes, each containing 0.5 mL of SIF, which is pre-warmed to 37° C. The final test compound concentration was 20 μM. The vials were kept in a benchtop Thermomixer® for the duration of the experiment. At each timepoint (0, 5, 10, 20, 40, 60, or 360 minutes or 24 hours), 1.0 mL of acetonitrile containing 1% formic acid was added to one vial to terminate the reaction. Samples were stored at 4° C. until the end of the experiment. After the final timepoint is sampled, the tubes were mixed and then centrifuged at 3,000 rpm for 10 minutes. Aliquots of the supernatant were removed, diluted 1:1 into distilled water containing internal standard, and analyzed by LCMS/MS. Percent remaining at each timepoint was calculated based on the peak area response ratio of test to compound to internal standard. Time 0 was set to 100%, and all later timepoints were calculated relative to time 0. Half-lives were calculated by fitting to a first-order exponential decay equation using Graphpad.

[2] = Stability in human fecal homogenate; conditions: 20% fecal homogenate (supernatant), pH 6.8, 20% human fecal homogenate, anaerobic, 37° C., read-out: t½: Human Feces anaerobic (converted)
Experimental: (§1) Centrifuged the homogenate at 2800×g for 15 min. The supernatant is taken out and used for incubations. […] The final test compound concentration was 20 μM.

[3] = Stability in cynomolgus monkey fecal homogenate; conditions: 20% fecal homogenate (supernatant), pH 6.8, 20% cynomolgus monkey fecal homogenate, anaerobic, 37° C., read-out: t½: Monkey Feces anaerobic (converted)
Experimental: as §1

Stability in rat plasma = conditions: both sexes, SD rat plasma, EDTA, 37° C., read-out: t½: Rat Plasma EDTA (converted)

| SMILES | SIF t½ [1] [h] | half-life at 20 μM [2] [h] | half-life at 20 μM [3] [h] | half-life at 20 μM (Stability in rat plasma) [h] | half-life at 20 μM [1] [h] |
| --- | --- | --- | --- | --- | --- |
| CC(=O)NCCCC[C@H](NC(=O)[C@](C)(CCCCN)NC(=O)[C@H](Cc1ccc2ccccc2c1)NC(=O)[C@H](Cc1ccc(OCCN)cc1)NC(=O)[C@H]1NC(=O)[C@H](CCCCNC(=O)CC(C)C)NC(=O)[C@H](Cc2c[nH]c3c(C)cccc23)NC(=O)[C@H]([C@@H](C)O)NC(=O)[C@H](CC(N)=O)NC(=O)[C@@H](NC(C)=O)C(C)(C)SSC1(C)C)C(=O)N[C@@H](CC(N)=O)C(=O)N[C@H](CC(C)C)C(N)=O [compound 315] | 24 | > 24 | > 24 | > 24 |  |
| CC(=O)NCCCC[C@H](NC(=O)[C@](C)(CCCCN)NC(=O)[C@H](Cc1ccc2ccccc2c1)NC(=O)[C@H](Cc1ccc(OCCN)cc1)NC(=O)[C@H]1NC(=O)[C@H](CCCCNC(=O)CCN)NC(=O)[C@H](Cc2c[nH]c3c(C)cccc23)NC(=O)[C@H]([C@@H](C)O)NC(=O)[C@H](CC(N)=O)NC(=O)[C@@H](NC(C)=O)C(C)(C)SSC1(C)C)C(=O)N[C@@H](CC(N)=O)C(=O)N[C@H](CC(C)C)C(N)=O [compound 321] | 24 | > 24 | > 24 | > 24 |  |
| CC(=O)NCCCC[C@@H]1NC(=O)[C@H](Cc2c[nH]c3c(C)cccc23)NC(=O)[C@H]([C@@H](C)O)NC(=O)[C@H](CCC(N)=O)NC(=O)[C@@H](NC(=O)[C@@H](CCCNC(=N)N)NC(C)=O)CCSC[C@@H](C(=O)N[C@@H](Cc2ccc(OCCN)cc2)C(=O)N[C@@H](Cc2ccc3ccccc3c2)C(=O)N[C@@](C)(CCCCN)C(=O)N[C@@H](CCCCNC(C)=O)C(=O)N[C@@H](CC(N)=O)C(=O)N[C@H](CCCCN)C(=O)N(C)CC(N)=O)NC1=O [compound 323] (Ac-[dR][Abu(4-yl)]QT[Trp(7-Me)]K(Ac)C[AEF][2Nal][αMeK]K(Ac)N[dK][Sar]-NH2; thioether 2-7) |  | > 24 | 13 | > 24 | 20 |
| CC(=O)NCCCC[C@H](NC(=O)[C@](C)(CCCCN)NC(=O)[C@H](Cc1ccc2ccccc2c1)NC(=O)[C@H](Cc1ccc(OCCN)cc1)NC(=O)[C@H]1NC(=O)[C@H](CCCNC(N)=O)NC(=O)[C@H](Cc2c[nH]c3c(C)cccc23)NC(=O)[C@H]([C@@H](C)O)NC(=O)[C@H](CC(N)=O)NC(=O)[C@@H](NC(C)=O)C(C)(C)SSC1(C)C)C(=O)N[C@@H](CC(N)=O)C(=O)NC(C)(C)C(=O)N[C@H](Cc1ccc(O)cc1)C(N)=O [compound 347] (Ac-[Pen]NT[Trp(7-Me)][Cit][Pen][AEF][2Nal][αMeK]K(Ac)N[Aib][dY]-NH2; disulfide 1-6) |  | > 24 | > 24 | > 24 | 12 |
| CC(=O)NCCCC[C@@H]1NC(=O)[C@H](Cc2c[nH]c3c(C)cccc23)NC(=O)[C@H]([C@@H](C)O)NC(=O)[C@H](CCC(C)C)NC(=O)[C@@H](NC(C)=O)C(C)(C)SSC(C)(C)[C@@H](C(=O)N[C@@H](Cc2ccc(OCCN)cc2)C(=O)N[C@@H](Cc2ccc3ccccc3c2)C(=O)N[C@@](C)(CCCCN)C(=O)N[C@@H](CCCCNC(C)=O)C(=O)N[C@@H](CC(N)=O)C(=O)N[C@H](CC(C)C)C(N)=O)NC1=O [compound 337] (Ac-[Pen][hLeu]T[Trp(7-Me)]K(Ac)[Pen][AEF][2Nal][αMeK]K(Ac)N[dL]-NH2; disulfide 1-6) | 24 | > 24 | > 24 | > 24 |  |
| CC(=O)NCCCC[C@@H]1NC(=O)[C@H](Cc2c[nH]c3c(C)cccc23)NC(=O)[C@H]([C@@H](C)O)NC(=O)[C@H](CC(N)=O)NC(=O)[C@@H](NC(C)=O)C(C)(C)SSC(C)(C)[C@@H](C(=O)N[C@@H](Cc2ccc(OCCN)cc2)C(=O)N[C@@H](Cc2ccc3ccccc3c2)C(=O)N[C@@](C)(CCCCN)C(=O)N[C@@H](CCCCNC(=O)[C@H](C)N)C(=O)N[C@@H](CC(N)=O)C(=O)N[C@H](CC(C)C)C(N)=O)NC1=O [compound 355] |  | 12 | > 24 | > 24 | 8 |
| CC(=O)NCCCC[C@H](NC(=O)[C@](C)(CCCCN)NC(=O)[C@H](Cc1ccc2ccccc2c1)NC(=O)[C@H](Cc1ccc(OCCN)cc1)NC(=O)[C@H]1NC(=O)[C@H](CCCNC(N)=O)NC(=O)[C@H](Cc2c[nH]c3c(C)cccc23)NC(=O)[C@H]([C@@H](C)O)NC(=O)[C@H](CC(N)=O)NC(=O)[C@@H](NC(C)=O)C(C)(C)SSC1(C)C)C(=O)N[C@@H](CC(N)=O)C(=O)NC(C)(C)C(=O)N[C@H](CCCCN)C(N)=O [compound 344] (Ac-[Pen]NT[Trp(7-Me)][Cit][Pen][AEF][2Nal][αMeK]K(Ac)N[Aib][dK]-NH2; disulfide 1-6) |  | > 24 | > 24 | > 24 | 9 |
| CCc1ccc2c(C[C@@H]3NC(=O)[C@H]([C@@H](C)O)NC(=O)[C@H](CC(N)=O)NC(=O)[C@@H](NC(C)=O)C(C)(C)SSC(C)(C)[C@@H](C(=O)N[C@@H](Cc4ccc(OCCN)cc4)C(=O)N[C@@H](Cc4ccc5ccccc5c4)C(=O)N[C@@](C)(CCCCN)C(=O)N[C@@H](CCCCNC(C)=O)C(=O)N[C@@H](CC(N)=O)C(=O)N[C@H](CCCCN)C(N)=O)NC(=O)[C@H](CCCCNC(C)=O)NC3=O)c[nH]c2c1 [compound 349] (Ac-[Pen]NT[X3]K(Ac)[Pen][AEF][2Nal][αMeK]K(Ac)N[dK]-NH2; disulfide 1-6) | 24 | > 24 | > 24 | > 24 |  |
| CC(=O)NCCCC[C@H](NC(=O)[C@](C)(CCCCN)NC(=O)[C@H](Cc1ccc2ccccc2c1)NC(=O)[C@H](Cc1ccc(OCCN)cc1)NC(=O)[C@H]1NC(=O)[C@H](CCCCNC(=O)[C@H](C)N)NC(=O)[C@H](Cc2c[nH]c3c(C)cccc23)NC(=O)[C@H]([C@@H](C)O)NC(=O)[C@H](CC(N)=O)NC(=O)[C@@H](NC(C)=O)C(C)(C)SSC1(C)C)C(=O)N[C@@H](CC(N)=O)C(=O)N[C@H](CC(C)C)C(N)=O [compound 314] | 24 | > 24 | > 24 | > 24 |  |
| CC(=O)NCCCC[C@@H]1NC(=O)[C@H](Cc2c[nH]c3c(C)cccc23)NC(=O)[C@H]([C@@H](C)O)NC(=O)[C@H](CCNC(C)=O)NC(=O)[C@@H](NC(C)=O)C(C)(C)SSC(C)(C)[C@@H](C(=O)N[C@@H](Cc2ccc(OCCN)cc2)C(=O)N[C@@H](Cc2ccc3ccccc3c2)C(=O)N[C@@](C)(CCCCN)C(=O)N[C@@H](CCCCNC(C)=O)C(=O)N[C@@H](CC(N)=O)C(=O)N[C@H](CC(C)C)C(N)=O)NC1=O [compound 335] (Ac-[Pen][Dab](Ac)T[Trp(7-Me)]K(Ac)[Pen][AEF][2Nal][αMeK]K(Ac)N[dL]-NH2; disulfide 1-6) |  | > 24 | > 24 | > 24 | 20 |
| CC(=O)NCCCC[C@@H]1NC(=O)[C@H](Cc2c(C)[nH]c3ccccc23)NC(=O)[C@H]([C@@H](C)O)NC(=O)[C@H](CC(N)=O)NC(=O)[C@@H](NC(C)=O)C(C)(C)SSC(C)(C)[C@@H](C(=O)N[C@@H](Cc2ccc(OCCN)cc2)C(=O)N[C@@H](Cc2ccc3ccccc3c2)C(=O)N[C@@](C)(CCCCN)C(=O)N[C@@H](CCCCNC(C)=O)C(=O)N[C@@H](CC(N)=O)C(=O)N[C@H](CCCCN)C(N)=O)NC1=O [compound 351] |  | > 24 | > 24 | > 24 | 12 |
| CC(=O)NCCCC[C@@H]1NC(=O)[C@H](Cc2c[nH]c3c(C)cccc23)NC(=O)[C@H]([C@@H](C)O)NC(=O)[C@H](CC(N)=O)NC(=O)[C@@H](NC(C)=O)C(C)(C)SSC(C)(C)[C@@H](C(=O)N[C@@H](Cc2ccc(OCCN)cc2)C(=O)N[C@@H](Cc2ccc3ccccc3c2)C(=O)N[C@@](C)(CCCCN)C(=O)N[C@@H](CCCCNC(=O)CC(C)C)C(=O)N[C@@H](CC(N)=O)C(=O)N[C@H](CC(C)C)C(N)=O)NC1=O [compound 356] |  | > 24 | > 24 | > 24 | 10 |
| CC(=O)NCCCC[C@@H]1NC(=O)[C@H](Cc2c[nH]c3c(C)cccc23)NC(=O)[C@H]([C@@H](C)O)NC(=O)[C@H](CC(N)=O)NC(=O)[C@@H](NC(C)=O)C(C)(C)SSC(C)(C)[C@@H](C(=O)N[C@@H](Cc2ccc(OCCN)cc2)C(=O)N[C@@H](Cc2c(C)[nH]c3ccccc23)C(=O)N[C@@](C)(CCCCN)C(=O)N[C@@H](CCCCNC(C)=O)C(=O)N[C@@H](CC(N)=O)C(=O)N[C@H](CCCCN)C(N)=O)NC1=O [compound 353] (Ac-[Pen]NT[Trp(7-Me)]K(Ac)[Pen][AEF][Trp(2-Me)][αMeK]K(Ac)N[dK]-NH2; disulfide 1-6) | 24 | > 24 | > 24 | > 24 |  |
| COc1cccc2c(C[C@@H]3NC(=O)[C@H]([C@@H](C)O)NC(=O)[C@H](CC(N)=O)NC(=O)[C@@H](NC(C)=O)C(C)(C)SSC(C)(C)[C@@H](C(=O)N[C@@H](Cc4ccc(OCCN)cc4)C(=O)N[C@@H](Cc4ccc5ccccc5c4)C(=O)N[C@@](C)(CCCCN)C(=O)N[C@@H](CCCCNC(C)=O)C(=O)N[C@@H](CC(N)=O)C(=O)N[C@H](CCCCN)C(N)=O)NC(=O)[C@H](CCCCNC(C)=O)NC3=O)c[nH]c12 [compound 299] | 24 | > 24 | > 24 | > 24 |  |
